Assay results taken from ChEMBL document CHEMBL4840344, “Discovery of 1,8-naphthalidine derivatives as potent anti-hepatic fibrosis agents via repressing PI3K/AKT/Smad and JAK2/STAT3 pathways” (Bioorg Med Chem, 2021).
Activity calls are given as the source filed them. The calls are words filed in the database; no cut-off is given here.

Columns and labels:
COL1A1 promoter [1] = experiment: Inhibition of COL1A1 promotor activity in human LX2 cells at 50 uM incubated for 24 hrs by luciferase reporter gene assay; format: cell-based
COL1A1 promoter [2] = experiment: Inhibition of COL1A1 promotor activity in human LX2 cells at 20 uM incubated for 24 hrs by luciferase reporter gene assay; format: cell-based
[3] = Cytotoxicity against human LX2 cells assessed as cell death incubated for 24 hrs by MTT assay; format: cell-based, LX-2

| Structure (SMILES) | inhibition (COL1A1 promoter [1]) | inhibition (COL1A1 promoter [2]) | CC50 at 24 h [3] [µM] |
| --- | --- | --- | --- |
| CN(C)c1ccc2c(=O)c(C(=O)Nc3cc(F)cc(F)c3)cn(-c3ccc(OCCCCCCC[N+](C)(C)C4CCCCC4)cc3Cl)c2n1 | inactive | inactive | – |
| Cc1cc(OCCCCCCC[n+]2ccccc2)cc(-n2cc(C(=O)Nc3cc(F)cc(F)c3)c(=O)c3ccc(N(C)C)nc32)c1 | 61% | 7.7% | – |
| Cc1cc(OCCCCCCC[N+]2(C)CCCC2)cc(-n2cc(C(=O)Nc3cc(F)cc(F)c3)c(=O)c3ccc(N(C)C)nc32)c1 | 35.4% | 4.32% | – |
| Cc1cc(OCCCCCCC[n+]2ccccc2)ccc1-n1cc(C(=O)Nc2cc(F)cc(F)c2)c(=O)c2ccc(N(C)C)nc21 | inactive | inactive | – |
| CN(C)c1ccc2c(=O)c(C(=O)Nc3cc(F)cc(F)c3)cn(-c3ccc(OCCCCCCC[N+]4(C)CCCC4)cc3Cl)c2n1 | inactive | inactive | < 20 |
| Cc1cc(OCCCCCCC[N+]23CCN(CC2)CC3)cc(-n2cc(C(=O)Nc3cc(F)cc(F)c3)c(=O)c3ccc(N(C)C)nc32)c1 | 5.52% | 10.3% | – |
| Cc1cc(-n2cc(C(=O)Nc3cc(F)cc(F)c3)c(=O)c3ccc(N(C)C)nc32)ccc1OCCCCCCC[N+]1(C)CCCC1 | 35.9% | 26.1% | – |
| CC[N+]1(CCCCCCCOc2ccc(-n3cc(C(=O)Nc4cc(F)cc(F)c4)c(=O)c4ccc(N(C)C)nc43)cc2Cl)CCCCC1 | 50.4% | 14.3% | – |
| CN(C)c1ccc2c(=O)c(C(=O)Nc3cc(F)cc(F)c3)cn(-c3ccc(OCCCCCCC[N+]4(C)CCCCC4)cc3F)c2n1 | inactive | inactive | < 20 |
| Cc1cc(OCCCCCCC[N+]2(C)CCCCC2)ccc1-n1cc(C(=O)Nc2cc(F)cc(F)c2)c(=O)c2ccc(N(C)C)nc21 | inactive | inactive | < 20 |
| CC[N+]1(CCCCCCCOc2cc(C)cc(-n3cc(C(=O)Nc4cc(F)cc(F)c4)c(=O)c4ccc(N(C)C)nc43)c2)CCCC1 | 73.2% | 35.1% | – |
| CC[N+]1(CCCCCCCOc2ccc(-n3cc(C(=O)Nc4cc(F)cc(F)c4)c(=O)c4ccc(N(C)C)nc43)c(F)c2)CCCC1 | inactive | inactive | < 20 |
| Cc1ccc(-n2cc(C(=O)Nc3cc(F)cc(F)c3)c(=O)c3ccc(N(C)C)nc32)cc1OCCCCCCC[N+]1(C)CCCCC1 | 45.1% | 23.4% | – |
| CC[N+]1(CCCCCCCOc2ccc(-n3cc(C(=O)Nc4cc(F)cc(F)c4)c(=O)c4ccc(N(C)C)nc43)c(Cl)c2)CCCC1 | inactive | inactive | < 20 |
| Cc1cc(OCCCCCCC[N+]2(C)CCCC2)ccc1-n1cc(C(=O)Nc2cc(F)cc(F)c2)c(=O)c2ccc(N(C)C)nc21 | inactive | inactive | < 20 |
| CC[N+]1(CCCCCCCOc2ccc(-n3cc(C(=O)Nc4cc(F)cc(F)c4)c(=O)c4ccc(N(C)C)nc43)cc2Cl)CCCC1 | 23.5% | – | – |
| CN1CC[N+](C)(CCCCCCCOc2cc(-n3cc(C(=O)Nc4cc(F)cc(F)c4)c(=O)c4ccc(N(C)C)nc43)ccc2Cl)CC1 | 45.2% | 27.5% | – |
| Cc1ccc(-n2cc(C(=O)Nc3cc(F)cc(F)c3)c(=O)c3ccc(N(C)C)nc32)cc1OCCCCCCC[N+]1(C)CCCC1 | 55.9% | 12.7% | – |
| CN(C)c1ccc2c(=O)c(C(=O)Nc3cc(F)cc(F)c3)cn(-c3ccc(OCCCCCCC[N+]45CCN(CC4)CC5)cc3F)c2n1 | 42.4% | 9.02% | – |
| Cc1cc(OCCCCCCC[N+](C)(C)C2CCCCC2)ccc1-n1cc(C(=O)Nc2cc(F)cc(F)c2)c(=O)c2ccc(N(C)C)nc21 | inactive | inactive | – |
| Cc1cc(-n2cc(C(=O)Nc3cc(F)cc(F)c3)c(=O)c3ccc(N(C)C)nc32)ccc1OCCCCCCC[N+]1(C)CCN(C)CC1 | 32% | 16.2% | – |
| CC[N+]1(CCCCCCCOc2ccc(-n3cc(C(=O)Nc4cc(F)cc(F)c4)c(=O)c4ccc(N(C)C)nc43)c(C)c2)CCCCC1 | inactive | inactive | < 20 |
| CN(C)c1ccc2c(=O)c(C(=O)Nc3cc(F)cc(F)c3)cn(-c3ccc(OCCCCCCC[N+]45CCN(CC4)CC5)c(Cl)c3)c2n1 | 20.4% | – | – |
| CN(C)c1ccc2c(=O)c(C(=O)Nc3cc(F)cc(F)c3)cn(-c3ccc(Cl)c(OCCCCCCC[N+]4(C)CCCCC4)c3)c2n1 | 90.5% | 57.3% | 72.6 |
| CN(C)c1ccc2c(=O)c(C(=O)Nc3cc(F)cc(F)c3)cn(-c3ccc(OCCCCCCC[n+]4ccccc4)cc3Cl)c2n1 | inactive | inactive | – |
| CN(C)c1ccc2c(=O)c(C(=O)Nc3cc(F)cc(F)c3)cn(-c3ccc(OCCCCCCC[N+]4(C)CCCC4)cc3F)c2n1 | inactive | inactive | < 20 |
| CC[N+]1(CCCCCCCOc2ccc(-n3cc(C(=O)Nc4cc(F)cc(F)c4)c(=O)c4ccc(N(C)C)nc43)c(Cl)c2)CCCCC1 | inactive | inactive | < 20 |

| Structure (SMILES) | inhibition (COL1A1 promoter [1]) | inhibition (COL1A1 promoter [2]) | CC50 at 24 h [3] [µM] |
| --- | --- | --- | --- |
| Cc1cc(OCCCCCCC[N+](C)(C)C2CCCCC2)cc(-n2cc(C(=O)Nc3cc(F)cc(F)c3)c(=O)c3ccc(N(C)C)nc32)c1 | 89.1% | 52.5% | 61.8 |
| Cc1ccc(-n2cc(C(=O)Nc3cc(F)cc(F)c3)c(=O)c3ccc(N(C)C)nc32)cc1OCCCCCCC[N+]12CCN(CC1)CC2 | 9.71% | 5.07% | – |
| Cc1cc(-n2cc(C(=O)Nc3cc(F)cc(F)c3)c(=O)c3ccc(N(C)C)nc32)ccc1OCCCCCCC[N+]12CCN(CC1)CC2 | 20.8% | 10.6% | – |
| CN(C)c1ccc2c(=O)c(C(=O)Nc3cc(F)cc(F)c3)cn(-c3ccc(OCCCCCCC[N+]4(C)CCCCC4)cc3Cl)c2n1 | inactive | inactive | < 20 |
| O=C(O[C@@H]1Cc2c(O)cc(O)cc2O[C@@H]1c1cc(O)c(O)c(O)c1)c1cc(O)c(O)c(O)c1 [EPIGALOCATECHIN GALLATE] | 32.2% | 19.2% | > 100 |
| Cc1cc(-n2cc(C(=O)Nc3cc(F)cc(F)c3)c(=O)c3ccc(N(C)C)nc32)ccc1OCCCCCCC[N+]1(C)CCCCC1 | 54.4% | 33% | – |
| Cc1cc(OCCCCCCC[N+]23CCN(CC2)CC3)ccc1-n1cc(C(=O)Nc2cc(F)cc(F)c2)c(=O)c2ccc(N(C)C)nc21 | inactive | inactive | < 20 |
| CC[N+]1(CCCCCCCOc2ccc(-n3cc(C(=O)Nc4cc(F)cc(F)c4)c(=O)c4ccc(N(C)C)nc43)cc2C)CCCCC1 | 53.4% | 19.7% | – |
| CN(C)c1ccc2c(=O)c(C(=O)Nc3cc(F)cc(F)c3)cn(-c3ccc(OCCCCCCC[N+]4(C)CCCC4)c(Cl)c3)c2n1 | 2.59% | – | – |
| CN1CC[N+](C)(CCCCCCCOc2ccc(-n3cc(C(=O)Nc4cc(F)cc(F)c4)c(=O)c4ccc(N(C)C)nc43)c(Cl)c2)CC1 | inactive | inactive | < 20 |
| CN(C)c1ccc2c(=O)c(C(=O)Nc3cc(F)cc(F)c3)cn(-c3ccc(OCCCCCCC[N+](C)(C)C4CCCCC4)cc3F)c2n1 | inactive | inactive | – |
| CN(C)c1ccc2c(=O)c(C(=O)Nc3cc(F)cc(F)c3)cn(-c3ccc(OCCCCCCC[N+]4(C)CCCCC4)c(Cl)c3)c2n1 | inactive | – | – |
| CN(C)c1ccc2c(=O)c(C(=O)Nc3cc(F)cc(F)c3)cn(-c3ccc(OCCCCCCC[n+]4ccccc4)c(Cl)c3)c2n1 | 21.4% | – | – |
| CC[N+]1(CCCCCCCOc2ccc(-n3cc(C(=O)Nc4cc(F)cc(F)c4)c(=O)c4ccc(N(C)C)nc43)c(F)c2)CCCCC1 | inactive | inactive | < 20 |
| Cc1cc(-n2cc(C(=O)Nc3cc(F)cc(F)c3)c(=O)c3ccc(N(C)C)nc32)ccc1OCCCCCCC[n+]1ccccc1 | 55% | inactive | – |
| CC[N+]1(CCCCCCCOc2cc(-n3cc(C(=O)Nc4cc(F)cc(F)c4)c(=O)c4ccc(N(C)C)nc43)ccc2Cl)CCCC1 | 96.4% | 46% | 61.3 |
| CN1CC[N+](C)(CCCCCCCOc2ccc(-n3cc(C(=O)Nc4cc(F)cc(F)c4)c(=O)c4ccc(N(C)C)nc43)cc2Cl)CC1 | 15.4% | – | – |
| Cc1cc(OCCCCCCC[N+]2(C)CCN(C)CC2)cc(-n2cc(C(=O)Nc3cc(F)cc(F)c3)c(=O)c3ccc(N(C)C)nc32)c1 | 38.2% | 2.8% | – |
| Cc1cc(OCCCCCCC[N+]2(C)CCN(C)CC2)ccc1-n1cc(C(=O)Nc2cc(F)cc(F)c2)c(=O)c2ccc(N(C)C)nc21 | inactive | inactive | < 20 |
| Cc1ccc(-n2cc(C(=O)Nc3cc(F)cc(F)c3)c(=O)c3ccc(N(C)C)nc32)cc1OCCCCCCC[n+]1ccccc1 | 22.2% | 39.7% | – |
| Cc1ccc(-n2cc(C(=O)Nc3cc(F)cc(F)c3)c(=O)c3ccc(N(C)C)nc32)cc1OCCCCCCC[N+]1(C)CCN(C)CC1 | 25% | 10.3% | – |
| CN(C)c1ccc2c(=O)c(C(=O)Nc3cc(F)cc(F)c3)cn(-c3ccc(OCCCCCCC[N+]45CCN(CC4)CC5)cc3Cl)c2n1 | 80% | 40.1% | 76.9 |
| Cc1ccc(-n2cc(C(=O)Nc3cc(F)cc(F)c3)c(=O)c3ccc(N(C)C)nc32)cc1OCCCCCCC[N+](C)(C)C1CCCCC1 | 61.7% | 32.3% | – |
| CN1CC[N+](C)(CCCCCCCOc2ccc(-n3cc(C(=O)Nc4cc(F)cc(F)c4)c(=O)c4ccc(N(C)C)nc43)c(F)c2)CC1 | – | inactive | – |
| CN(C)c1ccc2c(=O)c(C(=O)Nc3cc(F)cc(F)c3)cn(-c3ccc(Cl)c(OCCCCCCC[N+]45CCN(CC4)CC5)c3)c2n1 | 18.7% | 8.08% | – |
| CC[N+]1(CCCCCCCOc2cc(-n3cc(C(=O)Nc4cc(F)cc(F)c4)c(=O)c4ccc(N(C)C)nc43)ccc2Cl)CCCCC1 | inactive | inactive | – |
